Measurements published in patent publication US20240254119A1 (THIRD HARMONIC BIO, INC., priority 2022, published 2024).
pIC50: −log10 of the molar value.

Molecular target: T1, wtKIT (Homo sapiens, UniProt P10721)
T1 construct: 1888289AM in the reaction mixtures
Test: HTRF biochemical assay, wtKIT (phosphorylation of a peptide substrate)
Settings: Table 4
Protocol: Exemplary compounds were tested for ability to inhibit the phosphorylation of a peptide substrate by the tyrosine kinase wt KIT, PDGFRα, or CSF-1R. Assay procedures and results are described below.
Enzyme, substrate, and cofactors (ATP and Mn^2+) are combined in a well of a microtiter plate and incubated for 3 hours at 25° C. At the end of the incubation, the reaction is quenched by the addition of an EDTA-containing buffer.
The substrate used in the CSF-1R and PDGFRα assay is FAM-[…]-CONH2 (FAM is carboxyfluorescein). Peptide should be >95% purity. The substrate for the KIT assay is FAM-[…]-NH2.
• 1. To a well of a 384-wellplate add 5 μL of 2× enzyme buffer (or control). • 2. Add 100 nL of 100× compound. Enzyme and compound may be pre-incubated at this time if desired. • 3. Add 5 μL of 2× substrate buffer. • 4. Incubate plate at 25° C. for 3 hours. • 5. Add 10 uL of anti-phosphotyrosine antibody buffer. • 6. Read plate in BioTek Synergy Reader. Reaction Conditions for wtKIT Assay
• 100 mM HEPES, pH 7.5 0.1% BSA • 0.01% Triton x-100 • 1 mM DTT • 10 mM MnCl2 • 10 μM Sodium Orthovanadate • 10 μM Beta-Glycerophosphate • 400 μM ATP • 1% DMSO (from compound) • 1 μM FAM-[…]-CONH2, 5.0 nM wtKIT Enzyme (1888289AM)* • *Specific activity may vary from lot to lot. Enzyme concentration may need to be adjusted to yield 10-20% conversion of substrate to product.

T1 sequence (P10721 26-976): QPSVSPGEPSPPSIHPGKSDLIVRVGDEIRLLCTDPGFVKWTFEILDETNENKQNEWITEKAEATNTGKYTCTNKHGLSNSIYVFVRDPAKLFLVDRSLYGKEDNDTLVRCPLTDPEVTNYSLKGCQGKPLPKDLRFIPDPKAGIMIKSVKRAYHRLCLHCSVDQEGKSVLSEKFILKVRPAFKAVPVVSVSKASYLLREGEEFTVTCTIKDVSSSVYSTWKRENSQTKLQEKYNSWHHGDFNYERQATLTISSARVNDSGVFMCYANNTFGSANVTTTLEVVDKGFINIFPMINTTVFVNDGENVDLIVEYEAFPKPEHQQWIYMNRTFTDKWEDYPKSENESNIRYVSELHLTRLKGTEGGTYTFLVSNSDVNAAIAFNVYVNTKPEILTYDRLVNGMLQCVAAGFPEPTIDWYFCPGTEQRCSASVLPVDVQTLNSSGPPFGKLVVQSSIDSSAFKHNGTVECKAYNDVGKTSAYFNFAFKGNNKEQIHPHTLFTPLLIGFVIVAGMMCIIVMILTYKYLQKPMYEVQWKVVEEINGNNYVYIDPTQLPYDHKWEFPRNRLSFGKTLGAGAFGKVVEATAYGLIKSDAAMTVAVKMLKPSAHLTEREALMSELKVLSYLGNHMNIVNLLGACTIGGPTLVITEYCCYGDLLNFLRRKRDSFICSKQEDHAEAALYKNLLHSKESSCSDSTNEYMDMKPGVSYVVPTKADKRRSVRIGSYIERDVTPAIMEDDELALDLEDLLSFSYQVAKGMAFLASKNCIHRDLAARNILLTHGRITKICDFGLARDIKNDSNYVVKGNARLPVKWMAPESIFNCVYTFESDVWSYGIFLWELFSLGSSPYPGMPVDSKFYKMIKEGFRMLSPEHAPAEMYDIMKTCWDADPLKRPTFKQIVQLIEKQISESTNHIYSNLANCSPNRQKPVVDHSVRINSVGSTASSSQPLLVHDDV

COc1ccn2c(C(=O)Nc3cc(-c4noc(-c5ccc(C)cn5)n4)ccc3C)cnc2c1 [Compound I-556, 7-methoxy-N-(2-methyl-5-(5-(5-methylpyridin-2-yl)-1,2,4-oxadiazol-3-yl)phenyl)imidazo[1,2-a]pyridine-3-carboxamide] and Cc1ccc(-c2nc(-c3ccc(C)c(NC(=O)c4cnc5cc(C)ccn45)c3)no2)nc1 [Compound I-544] cannot be ordered by pIC50: at least 7.30 for the first, 6.30 to 7.30 for the second.

Cc1ccc(-c2noc([C@H]3C[C@@H]3F)n2)cc1NC(=O)c1cnc2cc(CC(C)(C)O)ccn12 [Compound I-460] and Cc1ccc(-c2noc([C@H]3C[C@@H]3F)n2)cc1NC(=O)c1cnc2cc(COCC(C)O)ccn12 (single isomer, unassigned) [Compound I-468, N-[5-[5-[(1R,2S)-2-fluorocyclopropyl]-1,2,4-oxadiazol-3-yl]-2-methyl-phenyl]-7-[[(2R*)-2-hydroxypropoxy]methyl]imidazo[1,2-a]pyridine-3-carboxamide] cannot be ordered by pIC50: 6.30 to 7.30 for the first, at least 7.30 for the second.

Cc1ccc(-c2noc(C[C@H](O)C(F)F)n2)cc1NC(=O)c1cnc2ccc(-c3ccn(C)n3)cn12 [Compound I-562, (S)—N-(5-(5-(3,3-difluoro-2-hydroxypropyl)-1,2,4-oxadiazol-3-yl)-2-methylphenyl)-6-(1-methyl-1H-pyrazol-3-yl)imidazo[1,2-a]pyridine-3-carboxamide] and Cc1ccc(-c2noc(C[C@H](O)C(F)F)n2)cc1NC(=O)c1cnc2cc(-c3ccn(C)n3)ccn12 [Compound I-555, (S)—N-(5-(5-(3,3-difluoro-2-hydroxypropyl)-1,2,4-oxadiazol-3-yl)-2-methylphenyl)-7-(1-methyl-1H-pyrazol-3-yl)imidazo[1,2-a]pyridine-3-carboxamide] cannot be ordered by pIC50: at least 7.30 for the first, at least 7.30 for the second.

Cc1ccc(-c2noc([C@H]3C[C@@H]3F)n2)cc1NC(=O)c1cnc2cc3c(cn12)COC3C (single isomer, unassigned) [Compound I-471, (6R*)—N-[5-[5-[(1R,2S)-2-fluorocyclopropyl]-1,2,4-oxadiazol-3-yl]-2-methyl-phenyl]-6-methyl-5-oxa-1,10-diazatricyclo[7.3.0.03,7]dodeca-2,7,9,11-tetraene-12-carboxamide] and Cc1ccc(-c2noc([C@H]3C[C@@H]3F)n2)cc1NC(=O)c1cnc2cc3c(cn12)C(C)OC3 (single isomer, unassigned) [Compound I-483, (4R*)—N-[5-[5-[(1R,2S)-2-fluorocyclopropyl]-1,2,4-oxadiazol-3-yl]-2-methyl-phenyl]-4-methyl-5-oxa-1,10-diazatricyclo[7.3.0.0^3,7]dodeca-2,7,9,11-tetraene-12-carboxamide] cannot be ordered by pIC50: at least 7.30 for the first, at least 7.30 for the second.

Cc1ccc(-c2noc(C[C@H](O)C(F)F)n2)cc1NC(=O)c1cnc2cc(OCC(C)(C)O)ccn12 [Compound I-576] and CNC(C)COCc1ccn2c(C(=O)Nc3cc(-c4noc(CC(O)C(F)F)n4)ccc3C)cnc2c1 (stereo not drawn) [Compound I-598] cannot be ordered by pIC50: at least 7.30 for the first, 6.30 to 7.30 for the second.

Cc1ccc(-c2noc([C@H]3C[C@@H]3F)n2)cc1NC(=O)c1cnn2ccc(OC(C)C)cc12 [Compound I-493, N-(5-(5-((1R,2S)-2-fluorocyclopropyl)-1,2,4-oxadiazol-3-yl)-2-methylphenyl)-5-isopropoxypyrazolo[1,5-a]pyridine-3-carboxamide] and Cc1ccc(-c2noc(C3CC3F)n2)cc1NC(=O)c1cnc2cc(C(C)OCCO)ccn12 (single isomer, unassigned) [Compound I-450, N-[5-[5-[(1R,2S)-2-fluorocyclopropyl]-1,2,4-]-7-[(1S*)-1-(2-hydroxyethoxadiazol-3-yl]-2-methyl-phenyloxy)ethyl]imidazo[1,2-a]pyridine-3-carboxamide] cannot be ordered by pIC50: at least 7.30 for the first, at least 7.30 for the second.

Cc1ccc(-c2noc([C@H]3C[C@@H]3F)n2)cc1NC(=O)c1cnc2cc(C/C=C/OCCO)ccn12 [Compound I-506, N-[5-[5-[(1R,2S)-2-fluorocyclopropyl]-1,2,4-oxadiazol-3-yl]-2-methyl-phenyl]-7-[(E)-3-(2-hydroxyethoxy)allyl]imidazo[1,2-a]pyridine-3-carboxamide] and Cc1ccc(-c2noc([C@H]3C[C@@H]3F)n2)cc1NC(=O)c1cnc2cc(COC[C@H](O)C(F)F)ccn12 [Compound I-501, 7-(((S)-3,3-difluoro-2-hydroxypropoxy)methyl)-N-(5-(5-((1R,2S)-2-fluorocyclopropyl)-1,2,4-oxadiazol-3-yl)-2-methylphenyl)imidazo[1,2-a]pyridine-3-carboxamide] cannot be ordered by pIC50: at least 7.30 for the first, at least 7.30 for the second.

Cc1ccc(-c2noc(CC(O)C(F)F)n2)cc1NC(=O)c1cnc2ccccn12 (stereo not drawn) [Compound I-476] and Cc1ccc(-c2noc(C[C@H](O)C(F)F)n2)cc1NC(=O)c1cnc2cc(-c3cscn3)ccn12 [Compound I-554, (S)—N-(5-(5-(3,3-difluoro-2-hydroxypropyl)-1,2,4-oxadiazol-3-yl)-2-methylphenyl)-7-(thiazol-4-yl)imidazo[1,2-a]pyridine-3-carboxamide] cannot be ordered by pIC50: at least 7.30 for the first, at least 7.30 for the second.

Cc1ccc(-c2noc([C@@H]3CC4(CC4)CN3)n2)cc1NC(=O)c1cnc2cc(F)ccn12 [Compound I-628, (S)—N-(5-(5-(5-azaspiro[2.4]heptan-6-yl)-1,2,4-oxadiazol-3-yl)-2-methylphenyl)-7-fluoroimidazo[1,2-a]pyridine-3-carboxamide] and Cc1nc(-c2ccc(C)c(NC(=O)c3cnc4cc(Cl)ccn34)c2)no1 [Compound I-675] cannot be ordered by pIC50: at least 7.30 for the first, at least 7.30 for the second.

First: COCc1ccn2c(C(=O)Nc3cc(-c4noc(C(C)O)n4)ccc3C)cnc2c1 (stereo not drawn) [Compound I-735]
Second: COCc1ccn2c(C(=O)Nc3cc(-c4noc(-c5cccnc5)n4)ccc3C)cnc2c1 [Compound I-732]
The pIC50 of the first is lower: 5.30 to 6.30 for the first, 6.30 to 7.30 for the second. The second is the more potent here.

Cc1ccc(-c2noc(-c3cccnc3)n2)cc1NC(=O)c1cnn2cc(-c3ccn(C)n3)ccc12 [Compound I-723] and Cc1ccc(-c2noc(-c3cccnc3)n2)cc1NC(=O)c1cnc2ccccn12 [Compound I-738] cannot be ordered by pIC50: at least 7.30 for the first, 6.30 to 7.30 for the second.

Cc1ccc(-c2noc(N3CC(F)(F)C3)n2)cc1NC(=O)c1cnc2cc(OCCCN3CCCC3)ccn12 [Compound I-631, N-(5-(5-(3,3-difluoroazetidin-1-yl)-1,2,4-oxadiazol-3-yl)-2-methylphenyl)-7-(3-(pyrrolidin-1-yl)propoxy)imidazo[1,2-a]pyridine-3-carboxamide] and Cc1nc(-c2ccc(C)c(NC(=O)c3cnc4cc(OCCCN5CCCC5)ccn34)c2)no1 [Compound I-629, N-(2-methyl-5-(5-methyl-1,2,4-oxadiazol-3-yl)phenyl)-7-(3-(pyrrolidin-1-yl)propoxy)imidazo[1,2-a]pyridine-3-carboxamide] cannot be ordered by pIC50: at least 7.30 for the first, at least 7.30 for the second.

Cc1ccn2c(C(=O)Nc3cc(-c4noc(CCC(C)(O)C(F)(F)F)n4)ccc3C)cnc2c1 (single isomer, unassigned) [Compound I-516] and Cc1ccn2c(C(=O)Nc3cc(-c4noc(-c5nc(C)oc5C)n4)ccc3C)cnc2c1 [Compound I-551] cannot be ordered by pIC50: at least 7.30 for the first, at least 7.30 for the second.

Cc1ccc(-c2noc([C@H]3C[C@@H]3F)n2)cc1NC(=O)c1cnc2c(F)c(COCC(C)(C)O)ccn12 [Compound I-473] and Cc1ccc(-c2noc([C@H]3C[C@@H]3F)n2)cc1NC(=O)c1cnc2ccc(COCC(C)(C)O)cn12 [Compound I-455, N-[5-[5-[(1R,2S)-2-fluorocyclopropyl]-1,2,4-oxadiazol-3-yl]-2-methyl-phenyl]-6-[(2-hydroxy-2-methyl-propoxy)methyl]imidazo[1,2-a]pyridine-3-carboxamide] cannot be ordered by pIC50: 6.30 to 7.30 for the first, at least 7.30 for the second.

Cc1ccc(-c2noc([C@H]3C[C@@H]3F)n2)cc1NC(=O)c1cnc2ccc(-c3ccn(C)n3)cn12 [Compound I-531, N-(5-(5-((1R,2S)-2-fluorocyclopropyl)-1,2,4-oxadiazol-3-yl)-2-methylphenyl)-6-(1-methyl-1H-pyrazol-3-yl)imidazo[1,2-a]pyridine-3-carboxamide] and Cc1ccc(-c2noc([C@H]3C[C@@H]3F)n2)cc1NC(=O)c1cnc2cc(-c3ccn(C)n3)ccn12 [Compound I-529, N-(5-(5-((1R,2S)-2-fluorocyclopropyl)-1,2,4-oxadiazol-3-yl)-2-methylphenyl)-7-(1-methyl-1H-pyrazol-3-yl)imidazo[1,2-a]pyridine-3-carboxamide] cannot be ordered by pIC50: at least 7.30 for the first, at least 7.30 for the second.

Cc1ccc(-c2noc([C@H]3C[C@@H]3F)n2)cc1NC(=O)c1cnc2cc3c(cn12)C(C)OC3 (single isomer, unassigned) [Compound I-482, (4S*)—N-[5-[5-[(1R,2S)-2-fluorocyclopropyl]-1,2,4-oxadiazol-3-yl]-2-methyl-phenyl]-4-methyl-5-oxa-1,10-diazatricyclo[7.3.0.0^3,7]dodeca-2,7,9,11-tetraene-12-carboxamide] and Cc1ccc(-c2noc([C@H]3C[C@@H]3F)n2)cc1NC(=O)c1cnc2cc(COCC(O)C(F)F)ccn12 (stereo partly drawn) [Compound I-499, 7-((3,3-difluoro-2-hydroxypropoxy)methyl)-N-(5-(5-((1R,2S)-2-fluorocyclopropyl)-1,2,4-oxadiazol-3-yl)-2-methylphenyl)imidazo[1,2-a]pyridine-3-carboxamide] cannot be ordered by pIC50: at least 7.30 for the first, at least 7.30 for the second.

In the case of Cc1nc(-c2ccc(C)c(NC(=O)c3cnn4cc(C(F)F)ccc34)c2)no1 [Compound I-569], the pIC50 was 6.30 to 7.30.
